These are literature values, as cited in US10632442B2, “Apparatus for a mass production of monodisperse biodegradable polymer-based microspheres and a multi-channel forming device incorporatable therein” (INVENTAGE LAB, INC., priority 2016, dated 2020).

For the data set the following is noted: in vivo.

Consider `CO/N=C1\C[C@]2(C[C@@H]3C[C@@H](C/C=C(\C)C[C@@H](C)/C=C/C=C4\CO[C@@H]5[C@H](O)C(C)=C[C@@H](C(=O)O3)[C@]45O)O2)O[C@H](/C(C)=C/C(C)C)[C@H]1C` [Moxidectin], for which the AUC – broadly, the area under the concentration-time curve, a measure of exposure – was 217 ng·days/mL; the Cmax (in general, the peak of the concentration-time curve) is 5.1 ng/mL; the Tmax (commonly the time from dosing to the highest level) was 7 to 10 days; the T½ is 35 days.
